According to publication PMC5365654, “Cyclic Boronates Inhibit All Classes of β-Lactamases” (Antimicrobial Agents and Chemotherapy, 2017):
Where two headings read alike, the source gives them in different places.

What was measured:
A. baumannii AB14 = experiment: Broth microtiter dilution MIC, AB14; format: cell-based; conditions: Acinetobacter baumannii, OXA-23 (D), OXA-51 (D), read-out: MIC (mg/liter) for β-lactam
Description: (§1) The in vitro activity of cyclic boronate 2 was assessed using nine clinical isolates carrying multiple β-lactamases (Table 3). The isolates selected included Enterobacteriaceae (E. coli ST 131, Klebsiella pneumoniae ST 258, and Providencia stuartii) producing class A ESBLs (CTX-M-15, CTX-M-27, SHV-5, and VEB-1), serine carbapenemase (KPC-2) and metallo-carbapenemases (VIM-1 and VIM-2), plasmid-mediated AmpC (CMY-2), and/or carbapenem-hydrolyzing OXA-48-like oxacillinases (OXA-181 and OXA-232) in various combinations. The activity against carbapenemase-producing strains of Pseudomonas aeruginosa (VIM-2) and Acinetobacter baumannii (OXA-23) was also investigated. All isolates have previously undergone extensive phenotypic and genotypic characterization ([60]).
(§2) MICs were determined using commercial Sensititre GN4F panels (Thermo Scientific, UK; lot B55051) and Mueller-Hinton II cation-adjusted broth (Oxoid, UK), with and without the addition of cyclic boronate 2 at a fixed concentration of 10 μg/ml. Plates were incubated at 37°C for 18 h and MICs read by eye following the addition of alamarBlue reagent (Trek Diagnostics).

K. pneumoniae KP15 = experiment: Broth microtiter dilution MIC, KP15; format: cell-based; conditions: Klebsiella pneumoniae, TEM-1 (A), SHV-11 (A), KPC-2 (A), read-out: MIC (mg/liter) for β-lactam
Description: as §1, §2

K. pneumoniae KP41 = experiment: Broth microtiter dilution MIC, KP41; format: cell-based; conditions: Klebsiella pneumoniae, TEM-1, SHV-1, SHV-5, SHV-11, CTX-M-15 (A), OXA-232 (D), read-out: MIC (mg/liter) for β-lactam
Description: as §1, §2

E. coli EC107, ST 131 = experiment: Broth microtiter dilution MIC, EC107; format: cell-based; conditions: Escherichia coli, CTX-M-15 (A), OXA-1 (D), read-out: MIC (mg/liter) for β-lactam
Description: as §1, §2

[1] = system: P. aeruginosa PA12, ST 111; experiment: Broth microtiter dilution MIC, PA12; format: cell-based; conditions: Pseudomonas aeruginosa, VIM-2 (B), read-out: MIC (mg/liter) for β-lactam
Description: as §1, §2

K. pneumoniae KP58 = experiment: Broth microtiter dilution MIC, KP58; format: cell-based; conditions: Klebsiella pneumoniae, SHV-11 (A), VIM-4 (B), read-out: MIC (mg/liter) for β-lactam
Description: as §1, §2

P. stuartii PS71 = experiment: Broth microtiter dilution MIC, PS71; format: cell-based; conditions: Providencia stuartii, TEM-1 (A), SHV-5 (A), VEB-1 (A), VIM-1 (B), read-out: MIC (mg/liter) for β-lactam
Description: as §1, §2

E. coli EC86 = experiment: Broth microtiter dilution MIC, EC86; format: cell-based; conditions: CTX-M-15 (A), CMY-4 (C), OXA-181 (D); for MIC: Escherichia coli
Description: as §1, §2

E. coli EC113, ST 131 = experiment: Broth microtiter dilution MIC, EC113; format: cell-based; conditions: Escherichia coli, CTX-M-27 (A), read-out: MIC (mg/liter) for β-lactam
Description: as §1, §2

E. coli EC114, ST 131 = experiment: Broth microtiter dilution MIC, EC114; format: cell-based; conditions: Escherichia coli, TEM-1 (A), CTX-M-15 (A), OXA-1 (D), read-out: MIC (mg/liter) for β-lactam
Description: as §1, §2

CTX-M-15 = target: T1, CTX-M-15 (Escherichia coli, UniProt Q9EXV5); experiment: FC5 fluorogenic β-lactamase inhibition assay, CTX-M-15; format: biochemical; conditions: FC5 substrate, read-out: IC50, nM (mean ± SD) for CTX-M-15
T1 construct: hexahistidine (pOPINF, 3C-cleavable) (N, cleaved yes); made in house; host or cells: E. coli BL21(DE3)
T1 sequence (Q9EXV5 entry or part of it): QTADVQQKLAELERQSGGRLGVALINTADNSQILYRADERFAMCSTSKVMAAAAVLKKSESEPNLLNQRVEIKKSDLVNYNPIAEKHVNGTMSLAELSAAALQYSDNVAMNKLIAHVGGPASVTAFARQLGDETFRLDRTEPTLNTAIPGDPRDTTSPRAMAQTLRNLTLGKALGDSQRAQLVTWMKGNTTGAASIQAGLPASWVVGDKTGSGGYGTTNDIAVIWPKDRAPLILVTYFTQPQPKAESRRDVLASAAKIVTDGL
Source text: To investigate the extent to which cyclic boronates inhibit class C β-lactamases as well as the important class A ESBL and class D carbapenemase targets, we used a fluorogenic assay ([22]) to screen the cyclic boronates, which we have found to inhibit other β-lactamases ([21]), against them. The β-lactamases used for screening included TEM-1 and CTX-M-15 (class A), the metallo-β-lactamase (MBL) from Bacillus cereus (BcII), Verona integron-encoded metallo-β-lactamase 1 (VIM-1) (class B), AmpC from P. aeruginosa (class C), and OXA-23 and OXA-48 (class D), collectively representing all classes of β-lactamase.
Inhibition assays were carried out using FC5 as a fluorogenic reporter substrate ([22]). Enzyme concentrations and buffers were the same as those employed in steady-state kinetic studies (see Table S2 in the supplemental material). […] The concentration of FC5 employed was 10 μM for TEM-1 and 5 μM for all other enzymes. […] Data at 0 min of incubation were obtained by addition of enzyme to a premixed solution of inhibitor and substrate. Residual enzyme activity was determined for a range of inhibitor concentrations. Nonlinear regression fitting of IC50 curves was carried out using a three-parameter dose-response curve in GraphPad Prism. Errors in IC50 are expressed as [σ(log IC50)/log IC50)] × IC50.
45 Steady-state kinetics studies used a Pherastar FS microplate reader with UV-STAR® 96-well,
47 black, µclear® plates (Greiner Bio-One) for FC5 (1). Buffers employed were 100 mM
48 phosphate buffer pH 7.5, 0.01% (v/v) Triton X-100 for TEM-1, CTX-M-15 and AmpC, 100 mM
49 phosphate buffer pH 7.5, 50 mM sodium bicarbonate, 0.01% Triton X-100 for OXA-23 and
51 1 µM ZnSO4, 0.01% Triton X-100 for MBL assays. Reaction progress was monitored at 298 K
53 intensity (λex = 380 nm, λem = 480 nm) for FC5 (1). Suitable enzyme concentrations for
54 kinetic analysis were determined by monitoring changes in absorbance/fluorescence for
55 enzyme concentrations between 20 nM and 20 pM.
Kinetic constants were determined using the initial rate of hydrolysis with the
57 reaction initiated through the addition of enzyme to pre-prepared substrate concentrations.
58 Substrate concentrations ranged between 400 µM and 0.4 µM. The Michaelis-Menten
59 equation was fitted to data by non-linear regression using GraphPad Prism software to
60 calculate the Michaelis-Menten constant and the limiting rate (2).

[2] = with cyclic boronate 2 (10 mg/liter) supplementation
[3] = without cyclic boronate 2 supplementation
[4] = E. coli EC86, with cyclic boronate 2 (10 mg/liter) supplementation, read-out: MIC (mg/liter) for β-lactam
[5] = EC86, read-out: MIC (mg/liter) for β-lactam, E. coli EC86, without cyclic boronate 2 supplementation

Compound	MIC (A. baumannii AB14; [2])	MIC (A. baumannii AB14; [3])	MIC (K. pneumoniae KP15; [2])	MIC (K. pneumoniae KP15; [3])	MIC (K. pneumoniae KP41; [2])	MIC (K. pneumoniae KP41; [3])	MIC (E. coli EC107, ST 131; [2])	MIC (E. coli EC107, ST 131; [3])	MIC [1, 2]	MIC [1, 3]	MIC (K. pneumoniae KP58; [2])	MIC (K. pneumoniae KP58; [3])	MIC (P. stuartii PS71; [2])	MIC (P. stuartii PS71; [3])	MIC (E. coli EC86; [4])	MIC (E. coli EC113, ST 131; [2])	MIC (E. coli EC113, ST 131; [3])	MIC (E. coli EC114, ST 131; [2])	MIC (E. coli EC114, ST 131; [3])	other results
CC1(C)S[C@@H]2[C@H](NC(=O)[C@H](N)c3ccccc3)C(=O)N2[C@H]1C(=O)O [AMP, ampicillin]	> 16 mg/L	> 16 mg/L	> 16 mg/L	> 16 mg/L	> 16 mg/L	> 16 mg/L	> 16 mg/L	> 16 mg/L	> 16 mg/L	> 16 mg/L	> 16 mg/L	> 16 mg/L	> 16 mg/L	> 16 mg/L	> 16 mg/L	≤ 8 mg/L	> 16 mg/L	> 16 mg/L	> 16 mg/L	MIC (mg/liter) for β-lactam (E. coli EC86; E. coli EC86, without cyclic boronate 2 supplementation): >16 mg/L
NC(=O)[C@@H]1CC[C@@H]2CN1C(=O)N2OS(=O)(=O)O [Avibactam, avibactam]	–	–	–	–	–	–	–	–	–	–	–	–	–	–	–	–	–	–	–	IC50 (CTX-M-15; preincubation 0 min): 9.9 ± 0.2 nM; IC50 (CTX-M-15; preincubation 10 min): 1.1 ± 0.1 nM; IC50 (CTX-M-15; preincubation 30 min): 0.4 ± 0.06 nM; IC50 (CTX-M-15; preincubation 60 min): 0.39 ± 0.01 nM; IC50 (CTX-M-15; preincubation 360 min): 6.4 ± 0.1 nM
CC(C)(O/N=C(\C(=O)N[C@@H]1C(=O)N2C(C(=O)[O-])=C(C[n+]3ccccc3)CS[C@H]12)c1csc(N)n1)C(=O)O [CAZ, ceftazidime]	> 16 mg/L	> 16 mg/L	4 mg/L	> 16 mg/L	> 16 mg/L	> 16 mg/L	≤ 1 mg/L	> 16 mg/L	> 16 mg/L	> 16 mg/L	2 mg/L	> 16 mg/L	> 16 mg/L	> 16 mg/L	8 mg/L	≤ 1 mg/L	8 mg/L	≤ 1 mg/L	> 16 mg/L	MIC (E. coli EC86; [5]): > 16 mg/L
CO/N=C(\C(=O)N[C@@H]1C(=O)N2C(C(=O)O)=C(CSc3nc(=O)c(=O)[nH]n3C)CS[C@H]12)c1csc(N)n1 [CRO, ceftriaxone]	> 32 mg/L	> 32 mg/L	–	–	–	–	< 0.5 mg/L	> 16 mg/L	> 32 mg/L	> 32 mg/L	–	–	16 mg/L	> 32 mg/L	8 mg/L	< 0.5 mg/L	> 32 mg/L	< 0.5 mg/L	> 32 mg/L	MIC (E. coli EC86; [5]): > 16 mg/L
C[C@@H](O)[C@H]1C(=O)N2C(C(=O)O)=C(S[C@@H]3CN[C@H](C(=O)Nc4cccc(C(=O)O)c4)C3)[C@H](C)[C@H]12 [ERT, ertapenem]	–	–	–	–	–	–	–	–	–	–	–	–	–	–	4 mg/L	–	–	–	–	–
Cc1nnc(SCC2=C(C(=O)O)N3C(=O)[C@@H](NC(=O)Cn4cnnn4)[C@H]3SC2)s1 [FAZ, cefazolin]	> 16 mg/L	> 16 mg/L	> 16 mg/L	> 16 mg/L	> 16 mg/L	> 16 mg/L	8 mg/L	–	> 16 mg/L	> 16 mg/L	> 16 mg/L	> 16 mg/L	4 mg/L	> 16 mg/L	–	4 mg/L	–	8 mg/L	–	–
CO/N=C(\C(=O)N[C@@H]1C(=O)N2C(C(=O)[O-])=C(C[N+]3(C)CCCC3)CS[C@H]12)c1csc(N)n1 [FEP, cefepime]	32 mg/L	> 32 mg/L	≤ 4 mg/L	> 32 mg/L	32 mg/L	> 32 mg/L	8 mg/L	–	> 32 mg/L	> 32 mg/L	> 32 mg/L	> 32 mg/L	8 mg/L	> 32 mg/L	≤ 4 mg/L	≤ 4 mg/L	–	8 mg/L	–	–
